The subject of one experiment is roundworms (Ascaridia). In words: ivermectin formulation in the drinking water of turkeys, roundworm infestation. It is filed as in vivo. The settings on record: in three days. How it is done:
(§1) The 2% ivermectin solution is diluted 20-fold to 0.1% in water. From the 0.1%, 3.4 ml is dissolved in 5 liters (QS) of water. The dose to be administered in order to obtain effective treatment of various parasites depends on the size of the fowl to be treated (i.e., their drinking capacity). A 4.5 kg turkey will typically drink 600-1000 ml of water every 24 hours. This corresponds to a dose of 100-150 μgm/kg/day. […] The effective dose to administer to any other type of animal to treat a particular type of parasite can be easily determined by simply varying the dosage until arriving at an effective dose.
A non-aqueous, stable formulation of ivermectin was prepared and diluted into the drinking water of market male turkeys as described above. […] The birds were treated at levels of 10, 50, 100, 200, 250, 500, 1200, and 1400 mg/kg of body weight/day. […] The formulation was effective at completely eliminating any visible signs of roundworm infestation at levels down to […] body weight/day in three days.

In the next experiment the test system is cecal worms (Heterakis). Nature of the experiment: ivermectin formulation in the drinking water of turkeys, cecal worms. The settings on record: in three days. It is filed as in vivo. How it is done:
as §1

The text below walks through data of patent US6780885B1, “Formulations and methods for administration of pharmacologically or biologically active compounds” (IDEXX Laboratories, Inc., priority 2000, dated 2004).

For the substance ivermectin, in the experiment on roundworms (Ascaridia) (in drinking water), the “dose effective to completely eliminate roundworms (Ascaridia)” value is given as 200 mg ivermectin/kg body weight/day. Moreover, the elimination of roundworms result in the experiment with roundworms (Ascaridia) (formulation in drinking water) was “complete elimination”. Moreover, in the experiment on cecal worms (Heterakis) (in drinking water), the “dose effective to completely eliminate cecal worms (Heterakis)” value is listed as 200 mg ivermectin/kg body weight/day. Further, the “elimination of cecal worms” value with cecal worms (Heterakis) (formulation in drinking water) is reported as “complete elimination”.
